The source made the active and inactive calls. No cut-off for these calls is given here.
How the values were obtained:
Rattus norvegicus [1] = assay: Prolactin inhibition ability in Sprague-Dawley rat at 10 ug/ml, ip administered 18 hrs post reserpine treatment measured after 1 hr by RIA; assay type: functional
Rattus norvegicus [2] = assay: Prolactin inhibition ability in Sprague-Dawley rat at 10 ug/ml, ip administered 18 hrs post reserpine treatment measured after 1 hr by RIA relative to lergotrile; assay type: functional
Rattus norvegicus [3] = assay: Prolactin stimulation ability in Sprague-Dawley rat at 10 ug/ml, ip administered 18 hrs post reserpine treatment measured after 1 hr by RIA; assay type: functional, organism-based
Rattus norvegicus [4] = assay: Prolactin inhibition ability in Sprague-Dawley rat at 10 ug/ml, ip administered 18 hrs post reserpine treatment measured after 1 hr by RIA relative to ergoconine; assay type: functional

SMILES	inhibition (INH) (Rattus norvegicus [1])	inhibition (INH) (Rattus norvegicus [2])	inhibition (Rattus norvegicus [3])	inhibition (INH) (Rattus norvegicus [4])
CCN1CC(CO)=C[C@@H]2c3cccc4[nH]cc(c34)C[C@H]21	63%	77%		
CN1C[C@H](N)C[C@@H]2c3cccc4[nH]cc(c34)C[C@H]21	57%			
CC(=O)N1CC(CO)=C[C@@H]2c3cccc4[nH]cc(c34)C[C@H]21			Active	
CN1C[C@H](NC(=O)CCl)C[C@@H]2c3cccc4[nH]cc(c34)C[C@H]21			Active	
N#CN1CC(CO)=C[C@@H]2c3cccc4[nH]cc(c34)C[C@H]21	25%			67%
CN1CC(CO)=C[C@@H]2c3cccc4[nH]cc(c34)C[C@H]21	71%			75%
OCC1=C[C@@H]2c3cccc4[nH]cc(c34)C[C@H]2N(Cc2ccccc2)C1		60%		
CCC(=O)N1CC(CO)=C[C@@H]2c3cccc4[nH]cc(c34)C[C@H]21		77%		
CN1C[C@H](NC(=O)CBr)C[C@@H]2c3cccc4[nH]cc(c34)C[C@H]21			Active	
OCC1=C[C@@H]2c3cccc4[nH]cc(c34)C[C@H]2NC1	58%			67%
CCCN1CC(CO)=C[C@@H]2c3cccc4[nH]cc(c34)C[C@H]21	72%	77%		
CCOC(=O)CN1CC(CO)=C[C@@H]2c3cccc4[nH]cc(c34)C[C@H]21	14%	77%		

— ChEMBL document CHEMBL3272091, “Ergot alkaloids. Synthesis of 6-alkyl-8-ergolenes and 6-methyl-8-aminoergolines as potential prolactin inhibitors” (1977)
